Our source for the logP values is the SangsterLogP compilation.

Molecules are shown by their SMILES.

Consider `CCC(O)C(C)(C)C` (stereo unspecified), for which the logP worked out at 2.27. `CCCCC(O)CCCC` had a logP of 3.36. With `CC(C)C(O)C(C)C` the figure was 2.31; with `CC(C)CC(C)CO` (stereo unspecified), 2.19. With `CCCC(C)(C)CO` the figure was 2.39; with `CC(C)(C)CCCO`, 2.39. With `CCCCCCCCCCCCCCCO` the figure was 6.64; with `CCCCC(O)CC` (stereo unspecified), 2.31. For `CC(C)CC(C)O` (stereo unspecified), the logP was 1.67.

Regarding `CCC(CC)CO`, the logP came out at 1.78.

Molecule `CC(C)CC(C)(C)O` registered a logP of 1.67. The same measure for `CCCCCC(O)CCC` (stereo unspecified): 3.36. With `CCC(C)(C)CO` the figure was 1.57; with `CCCCCCCCCCCCCCO`, 6.11; with `CC(C)(C)CCO`, 1.57. As for `CCCCCCC(O)CC` (stereo unspecified), the lipophilicity (logP) came to 3.36.
